According to patent US12496294B2, “Methods for improving exercise performance and endurance thereof” (NANJING NUTRABUILDING BIO-TECH CO., LTD., priority 2020, dated 2025):

How the values were obtained:
mice [1] = test: Treadmill running exercise endurance test in mice after DHB supplementation; type: in vivo; conditions: DHB 13, 19.5 or 26 mg/kg daily for two consecutive months, vs control group
Description: (§1) Prior to the experiment, all mice were acclimatized on a treadmill by running at 15% incline and at 10 m/min for two days. After the 2-day acclimatization, 40 mice were randomly divided into four groups as followings (10 for each group): Control group (normal diet supplemented with distilled water), Dihydroberberine (high) group (normal diet supplemented with dihydroberberine 26 mg/kg daily), Dihydroberberine (medium) group: (normal diet supplemented with dihydroberberine 19.5 mg/kg daily), Dihydroberberine (low) group (normal diet supplemented with dihydroberberine 13 mg/kg daily). Each group was fed on a normal diet, other than that, three experimental groups were supplemented with dihydroberberine daily for two consecutive months, while the control group was only supplemented with distilled water at the same time. Exercise endurance of the mice was evaluated by treadmill running. At the beginning of the formal experiment, mice were placed on treadmill, running at 10 m/min for 20 minutes, and then the running speed was increased by 2 m/min every 2nd minutes. End point occurs if the mouse touched the shock grid of the treadmill three times or on the treadmill for 5 consecutive seconds without attempting to reengage the treadmill. At the end point, the running distance, highest running speed, total running time of the mice were recorded^[7].
FIGS. 1-3 show the exercise performance and endurance of mice after supplemented with DHB for two consecutive months.

AMPK = AMPK level in red blood cells after treadmill exhaustion test; type: in vivo, mice; conditions: group supplemented with high dose of DHB (26 mg/kg daily); FIG. 10
Description: as §1, with “At the beginning of the formal experiment, mice were placed on treadmill, running at 10 m/min for 20 minutes, and then the running speed was increased by 2 m/min every 2nd minutes. End point occurs if the mouse touched the shock grid of the treadmill three times or on the treadmill for 5 consecutive seconds without attempting to reengage the treadmill.” left out
After the treadmill exhaustion test, blood samples were collected from the mice into heparin tubes. […] The levels of superoxide dismutase (SOD), catalase (CAT), and malondialdehyde (MDA) in the plasma were determined using commercially available kits. […]

mice [2] = test: SOD, CAT and MDA levels in plasma after treadmill exhaustion test (commercial kits); type: in vivo; conditions: for SOD level in plasma: FIG. 4; for CAT level in plasma: FIG. 5; for MDA level in plasma: FIG. 6
Description: as §1
(§2) After the treadmill exhaustion test, blood samples were collected from the mice into heparin tubes. By centrifugation at 4500 rpm for 15 minutes, plasma was separated from the top layer of the whole blood and red blood cells were also separated from the lower layer of the blood. The levels of superoxide dismutase (SOD), catalase (CAT), and malondialdehyde (MDA) in the plasma were determined using commercially available kits.

red blood cells = test: ROS, 2,3-DPG and T-AOC in red blood cells after treadmill exhaustion test (commercial kits); type: in vivo, mice; conditions: for T-AOC level in the red blood cell: FIG. 9
Description: as §1, §2
The reactive oxygen species (ROS), 2,3-diphosphoglycerate (2,3-DPG), and total antioxidant capacity (T-AOC) in red blood cells were also determined using commercially available kits.

[3] = groups with administration of DHB (13, 19.5, 26 mg/kg daily, two months)
[4] = high-dose group (26 mg/kg daily), p<0.001

Question: COc1ccc2c(c1OC)CN1CCc3cc4c(cc3C1=C2)OCO4 [DHB, dihydroberberine] was tested. Which running distance (mice [1]; FIG. 1) did it give?
Answer: enhanced endurance and better performance

Question: What about the highest running speed (mice [1]; FIG. 2) of the same compound?
Answer: enhanced endurance and better performance

Question: What about the running time (mice [1]; FIG. 3) of the same compound?
Answer: enhanced endurance and better performance

Question: And the “AMPK level in red blood cells” value (AMPK)?
Answer: decreased slightly

Question: What about the “SOD level in plasma” value (mice [2]; groups supplemented with DHB (13, 19.5, 26 mg/kg daily, two months) vs control) of the same compound?
Answer: higher than the control group

Question: What about the “CAT level in plasma” value (mice [2]; [3]) of the same compound?
Answer: increased

Question: And the “MDA level in plasma” value (mice [2]; [3])?
Answer: increased

Question: What about the “CAT level in plasma” value (mice [2]; high dose group (26 mg/kg daily), p<0.05) of the same compound?
Answer: increased significantly

Question: What about the “SOD level in plasma” value (mice [2]; high-dose DHB group (26 mg/kg daily), p<0.01) of the same compound?
Answer: increased significantly

Question: What about the “MDA level in plasma” value (mice [2]; [4]) of the same compound?
Answer: increased significantly

Question: And the “CAT level in plasma” value (mice [2]; middle dose group (19.5 mg/kg daily), p<0.05)?
Answer: increased significantly

Question: What about the “ROS level in the red blood cell” value (red blood cells; groups supplemented with DHB (13, 19.5, 26 mg/kg daily, two months), FIG. 7) of the same compound?
Answer: increased

Question: What about the “2,3-DPG level in the red blood cell” value (red blood cells; groups supplemented with DHB (13, 19.5, 26 mg/kg daily, two months), FIG. 8) of the same compound?
Answer: increased

Question: What about the “T-AOC level in the red blood cell” value (red blood cells; groups supplemented with DHB (13, 19.5, 26 mg/kg daily, two months)) of the same compound?
Answer: increased

Question: And the “T-AOC level in the red blood cell” value (red blood cells; [4])?
Answer: increased significantly
